Assay results as given in article PMC8636514, “Therapeutic potential of TRPM8 antagonists in prostate cancer” (Scientific Reports, 2021).

Tests used:
LNCaP cells [1] = experiment: DNA synthesis (BrdU incorporation) in LNCaP cells; format: cell-based, human; conditions: for effect on DNA synthesis stimulated by R1881: 1 nM R1881, compound 1 μM; for inhibitory effect on R1881-stimulated DNA synthesis, compared with 3 and 5: 10 nM R1881, compound 1 μM
Method: […] Cells were fixed, permeabilized, washed and the BrdU incorporation was analysed as reported. Nuclei were stained with Hoechst and cells on coverslips were scored by IF microscopy, using a DMLB Leica (Leica) fluorescent microscope, equipped with HCX PL Apo 63 × oil objective. Different fields from each coverslip were analyzed and BrdU incorporation was calculated by the formula: percentage of BrdU-positive cells = (No. of BrdU-positive cells/No. of total cells) × 100. Data in the graphs derive from at least 1000 scored cells for each coverslip. Representative images were captured using DC480 camera (Leica) and acquired using Leica Suite software. They are representative of three different experiments.

Cdk4 = experiment: Western blot of Cdk4 in LNCaP cells; format: cell-based, human; conditions: 15 h
Description: (§1) All performed as reported. The mouse monoclonal anti-AR (441; Santa Cruz) antibody was used in Co-Ip or WB approaches. TRPM8 was detected using the rabbit polyclonal anti-TRPM8 (NBP1-97311; Novus Biological). […] The rabbit polyclonal anti-ERK (C-14; Santa Cruz), antibody was used to detect total ERK. FAK and P-Tyr397 FAK were detected using the mouse monoclonal anti-FAK (Clone 77/610077 BD Transduction Laboratories) or anti P-Tyr397 FAK (Clone 14/611722; BD Transduction Laboratories) antibodies, respectively. P-Tyr118 paxillin and total paxillin were detected using the rabbit polyclonal anti-P-Y118 (#2541, Cell Signaling) or the mouse monoclonal anti-paxillin (clone 349; BD Biosciences) antibodies, respectively. […] P-Tyr 416 Src and Src were detected using the rabbit monoclonal anti P-Tyr 416 Src (#6943; Cell Signaling) or the mouse monoclonal anti Src (Calbiochem) antibodies, respectively. ERα and ERβ were detected using the rabbit polyclonal anti-ERα (543; Santa Cruz) or anti-ERβ (Upstate Biotechnology, U.S.A.) antibodies. Cyclin D1, p27 and Cdk4 were stained using the mouse monoclonal anti-cyclin D1 (clone AM29; from Zymed Laboratories Inc.), the rabbit polyclonal anti-p27 (C-19; Santa Cruz) or anti Cdk-4 (c-22; Santa Cruz) antibodies, respectively. The mouse monoclonal anti-tubulin (Sigma-Aldrich) antibody was used to detect tubulin. The ECL system (GE Healthcare) was employed to reveal immune-reactive proteins. Densitometric analysis of WB was performed by using Image J Software (https://imagej.nih.gov/ij).

TRPM8 = experiment: Western blot of TRPM8 in LNCaP lysate proteins; format: cell-based, human; conditions: for TRPM8 in lysates, Average (n=3): Fig 6d upper panel
Description: as §1

LNCaP cell spheroids = experiment: 3D culture in ECM, LNCaP cell spheroid size; format: cell-based, human; conditions: for androgen-induced increase of spheroid size / spheroid size in the absence of hormone: 15 days; for spheroid size in the absence of hormone: compound 1 μM alone
Method: LNCaP cell spheroids were generated as reported. Briefly, 2 × 10^4 LNCaP cells were mixed with 200 μL of phenol-red free growth factor-reduced Matrigel and 50 μL of organoid plating medium in each well. The mixture was pipetted in 24-well plate and allowed to solidify for 45 min at 37 °C, before the addition of 400 μL organoid plating-medium, which was made using phenol red-free DMEM/F12 medium, containing 7% CSS, penicillin (100 U/mL), streptomycin (100 U/mL), diluted GlutaMAX 100X (Gibco), 10 mM Hepes, B27 supplement (50 × stock solution; Thermofisher, Waltham, Massachusetts, USA), […] nicotinamide (Sigma-Aldrich), […] N-acetylcysteine (Sigma-Aldrich) and 10 μM Y-27632 (Millipore, Burlington, MA, USA). After 3 days, the organoid-plating medium was replaced with a similar medium in the absence of N-acetylcysteine and Y-27632. At the 3rd day, spheroids/organoids were untreated or treated with the indicated compounds. The medium was changed every 3 days and fields were analyzed by phase-contrast microscopy.
In wound scratch assay, different fields were analysed using DMIRB inverted microscope (Leica) equipped with N-Plan 10 × objective (Leica), as reported. LNCaP organoids were analysed using the same microscope equipped with C-Plan 40 × or HCX PL Fluotar 63 × objectives (Leica). Images were captured using a DFC 450C camera (Leica) and acquired using the Application Suite Software (Leica). They are representative of three different experiments. The relative organoid size was calculated using the same software and expressed as a fold increase over the basal organoid size (measured at 3th day). The wound gap was calculated using Image J Software and expressed as % of the decrease in the wound area. Migrating or invading cells from at least 30 fields/each membrane were scored, using a DMLB (Leica) fluorescent microscope, equipped with HCPL Fluotar 20 × objective.

AR = experiment: Western blot of AR in LNCaP lysate proteins; format: cell-based, human; conditions: for AR in lysates, Average (n=3): Fig 6d upper panel
Description: as §1

LNCaP cells [2] = experiment: Fluorescent Ca2+ imaging (Fluo 4-AM) in LNCaP cells; format: cell-based, human; conditions: for androgen-induced increase of intracellular Ca2+ levels: 10 nM R1881, 240 s, compound 1 μM
Method: LNCaP cells in 6 multi-wells were made quiescent and incubated for 60 min at 37 °C with 1 µM 4-Fluo AM (Abcam, ab241082). Cells were washed twice with Hank’s Balanced salt solution (HBSS) to remove any dye non-specifically associated with the cell surface. They were incubated with medium for 30 min to allow complete de-esterification of intracellular AM esters, and then left untreated or treated for 240 s with 10 nM R1881, in the absence or presence of the indicated compounds. Different fields were analyzed using DMIRB Leica (Leica) microscope equipped with C-Plan × 40 or HCX PL Fluotar × 63 objectives (Leica). IF microscopy images were generated using a DFC 450C camera (Leica).

p27 = experiment: Western blot of p27 in LNCaP cells; format: cell-based, human; conditions: for P27, fold increase over the basal level: 15 h; for androgen-induced p27 down-regulation: R1881, compound 1 μM
Description: as §1

cyclin D1 = experiment: Western blot of cyclin D1 in LNCaP cells; format: cell-based, human; conditions: for Cyclin D1, fold increase over the basal level: 15 h; for androgen-induced up-regulation of cyclin D1: R1881, compound 1 μM
Description: as §1

AR/TRPM8 complex = target: T1, AR/TRPM8 complex (Homo sapiens, UniProt Q7Z2W7); experiment: Co-IP of AR with TRPM8 in LNCaP cells; format: cell-based; conditions: for androgen-induced Co-IP of AR with TRPM8: 10 nM R1881, 10 min, compound 1 μM; for AR in IP anti-AR, Average (n=3) / TRPM8 in IP anti-AR, Average (n=3): Fig 6d lower panel; for AR, Average (n=3) / TRPM8, Average (n=3): Fig 6e, R1881 alone
T1 construct: We here dissected an endogenous non-genomic mechanism of the TRPM8 channel regulation by androgens in PC cells; endogenous in cells; host or cells: LNCaP cells
Description: as §1

[3] = 1 nM R1881 + compound 1 μM, Fig 2e-f
[4] = 10 nM R1881 + compound 1 μM, Fig 2d
[5] = fourth group of list (probably IP anti-AR)

T1 sequence (Q7Z2W7 whole entry, one chain of several): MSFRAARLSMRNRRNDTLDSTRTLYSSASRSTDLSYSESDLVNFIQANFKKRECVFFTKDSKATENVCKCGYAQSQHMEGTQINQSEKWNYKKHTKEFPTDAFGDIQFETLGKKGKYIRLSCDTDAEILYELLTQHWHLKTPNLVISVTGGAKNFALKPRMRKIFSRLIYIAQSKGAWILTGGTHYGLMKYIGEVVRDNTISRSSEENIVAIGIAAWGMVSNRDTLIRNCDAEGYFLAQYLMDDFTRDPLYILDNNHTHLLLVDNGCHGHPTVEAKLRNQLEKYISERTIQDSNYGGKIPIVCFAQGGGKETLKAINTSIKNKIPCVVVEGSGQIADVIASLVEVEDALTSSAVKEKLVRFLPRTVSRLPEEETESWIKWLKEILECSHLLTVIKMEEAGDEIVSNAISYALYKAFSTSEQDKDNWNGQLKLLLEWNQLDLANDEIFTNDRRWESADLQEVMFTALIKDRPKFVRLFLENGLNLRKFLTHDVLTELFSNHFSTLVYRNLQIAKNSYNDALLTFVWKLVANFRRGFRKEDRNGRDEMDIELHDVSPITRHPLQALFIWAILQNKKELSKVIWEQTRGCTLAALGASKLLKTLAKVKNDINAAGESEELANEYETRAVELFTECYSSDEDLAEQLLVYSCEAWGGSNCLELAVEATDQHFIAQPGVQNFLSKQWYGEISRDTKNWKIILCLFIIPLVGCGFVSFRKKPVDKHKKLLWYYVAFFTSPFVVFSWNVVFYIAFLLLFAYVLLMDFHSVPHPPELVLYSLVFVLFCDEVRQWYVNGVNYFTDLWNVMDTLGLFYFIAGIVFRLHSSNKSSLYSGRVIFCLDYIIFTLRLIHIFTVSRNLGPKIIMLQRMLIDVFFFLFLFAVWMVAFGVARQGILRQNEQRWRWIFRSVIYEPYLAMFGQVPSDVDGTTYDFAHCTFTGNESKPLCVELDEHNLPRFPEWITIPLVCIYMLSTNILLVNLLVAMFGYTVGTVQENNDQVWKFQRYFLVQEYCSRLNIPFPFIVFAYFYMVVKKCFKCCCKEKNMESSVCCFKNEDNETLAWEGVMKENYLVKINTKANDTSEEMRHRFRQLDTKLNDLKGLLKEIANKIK

c1ccc(COc2ccc3[nH]cc(CCNCc4ccc(Oc5ccccc5)cc4)c3c2)cc1 [Compound 4]
effect on DNA synthesis stimulated by R1881 (LNCaP cells [1]): reverted
inhibitory effect on R1881-stimulated DNA synthesis, compared with 3 and 5 (LNCaP cells [1]): stronger
Cdk4, fold increase over the basal level (Cdk4; [3]): 1 fold
TRPM8 in lysates, Average (n=3) (TRPM8; 10 nM R1881 + compound 1 μM): 1
TRPM8 in lysates, Average (n=3) (TRPM8; compound 1 μM alone): 1
androgen-induced increase of spheroid size (LNCaP cell spheroids; 1 nM R1881, compound 1 µM): reverted
androgen-induced increase of spheroid size (LNCaP cell spheroids; 10 nM R1881, compound 1 μM): abolished
spheroid size in the absence of hormone (LNCaP cell spheroids): leaving unaffected
AR in lysates, Average (n=3) (AR; 10 nM R1881 + compound 1 μM): 0,9
AR in lysates, Average (n=3) (AR; compound 1 μM alone): 0,9
androgen-induced increase of intracellular Ca2+ levels (LNCaP cells [2]): reduced the androgen effect
P27, fold increase over the basal level (p27; [3]): 1,1 fold
androgen-induced p27 down-regulation (p27): significantly impair
Cyclin D1, fold increase over the basal level (cyclin D1; [3]): 0,9 fold
androgen-induced up-regulation of cyclin D1 (cyclin D1): significantly impair
androgen-induced Co-IP of AR with TRPM8 (AR/TRPM8 complex): abolished this association
AR in IP anti-AR, Average (n=3) (AR/TRPM8 complex; 10 nM R1881 + compound 1 μM): 1,1
TRPM8 in IP anti-AR, Average (n=3) (AR/TRPM8 complex; 10 nM R1881 + compound 1 μM): 0,7
AR in IP anti-AR, Average (n=3) (AR/TRPM8 complex; compound 1 μM alone): 1,1
TRPM8 in IP anti-AR, Average (n=3) (AR/TRPM8 complex; compound 1 μM alone): 0,3
AR/TRPM8 complex assembly in the absence of hormone (AR/TRPM8 complex; compound 1 μM alone): did not affect

COC(=O)[C@H](Cc1c[nH]c2ccccc12)N(Cc1ccccc1)Cc1ccccc1 [Compound 6]
effect on DNA synthesis stimulated by R1881 (LNCaP cells [1]): reverted
inhibitory effect on R1881-stimulated DNA synthesis, compared with 3 and 5 (LNCaP cells [1]): stronger
Cdk4, fold increase over the basal level (Cdk4; [3]): 1,1 fold
Cdk4, fold increase over the basal level (Cdk4; [4]): 1,1 fold
TRPM8 in lysates, Average (n=3) (TRPM8; 10 nM R1881 + compound 1 μM): 1
TRPM8 in lysates, Average (n=3) (TRPM8; compound 1 μM alone): 1,1
androgen-induced increase of spheroid size (LNCaP cell spheroids; 1 nM R1881, compound 1 µM): reverted
androgen-induced increase of spheroid size (LNCaP cell spheroids; 10 nM R1881, compound 1 μM): abolished
spheroid size in the absence of hormone (LNCaP cell spheroids): leaving unaffected
AR in lysates, Average (n=3) (AR; 10 nM R1881 + compound 1 μM): 1,1
AR in lysates, Average (n=3) (AR; compound 1 μM alone): 0,9
androgen-induced increase of intracellular Ca2+ levels (LNCaP cells [2]): reduced the androgen effect
P27, fold increase over the basal level (p27; [3]): 1 fold
P27, fold increase over the basal level (p27; [4]): 1,1 fold
androgen-induced p27 down-regulation (p27): significantly impair
Cyclin D1, fold increase over the basal level (cyclin D1; [3]): 0,9 fold
Cyclin D1, fold increase over the basal level (cyclin D1; [4]): 1,2 fold
androgen-induced up-regulation of cyclin D1 (cyclin D1): significantly impair
androgen-induced Co-IP of AR with TRPM8 (AR/TRPM8 complex): abolished this association
AR in IP anti-AR, Average (n=3) (AR/TRPM8 complex; 10 nM R1881 + compound 1 μM): 1
TRPM8 in IP anti-AR, Average (n=3) (AR/TRPM8 complex; 10 nM R1881 + compound 1 μM): 0,6
AR in IP anti-AR, Average (n=3) (AR/TRPM8 complex; compound 1 μM alone): 1,1
TRPM8 in IP anti-AR, Average (n=3) (AR/TRPM8 complex; compound 1 μM alone): 0,3
AR/TRPM8 complex assembly in the absence of hormone (AR/TRPM8 complex; compound 1 μM alone): did not affect

C[C@]1(O)CC[C@H]2[C@@H]3CCC4=CC(=O)CCC4=C3C=C[C@@]21C [Compound R1881, reference compound]
increase of the DNA synthesis (LNCaP cells [1]; 1 nM R1881 alone): ~2 folds
increase in BrdU incorporation (LNCaP cells [1]; 10 nM R1881 alone): ~3,5 folds
Cdk4, fold increase over the basal level (Cdk4; 1 nM R1881 alone, Fig 2e): 1 fold
Cdk4, fold increase over the basal level (Cdk4; 1 nM R1881 alone, Fig 2f): 1,1 fold
Cdk4, fold increase over the basal level (Cdk4; 10 nM R1881 alone, Fig 2d): 1 fold
amount of TRPM8 (Western blot) (TRPM8; 10 nM R1881, 24 h, quiescent LNCaP cells): very weakly increased
TRPM8, Average (n=3) (TRPM8; Fig 6e, R1881 alone): 1
TRPM8 in lysates, Average (n=3) (TRPM8; 10 nM R1881 alone, 10 min): 0,9
response on spheroid size (LNCaP cell spheroids; 1 nM R1881 alone): only a weak response
AR, Average (n=3) (AR; Fig 6e, first group of list (section not labelled, probably lysates), R1881 alone): 1
AR in lysates, Average (n=3) (AR; 10 nM R1881 alone, 10 min): 1
intracellular Ca2+ levels (LNCaP cells [2]; 10 nM R1881 alone, within 240 s): increased
P27, fold increase over the basal level (p27; 1 nM R1881 alone, Fig 2e): 0,6 fold
P27, fold increase over the basal level (p27; 1 nM R1881 alone, Fig 2f): 0,6 fold
P27, fold increase over the basal level (p27; 10 nM R1881 alone, Fig 2d): 0,4 fold
Cyclin D1, fold increase over the basal level (cyclin D1; 1 nM R1881 alone, Fig 2e): 1,5 fold
Cyclin D1, fold increase over the basal level (cyclin D1; 1 nM R1881 alone, Fig 2f): 1,7 fold
Cyclin D1, fold increase over the basal level (cyclin D1; 10 nM R1881 alone, Fig 2d): 2,7 fold
AR, Average (n=3) (AR/TRPM8 complex; [5]): 1
TRPM8, Average (n=3) (AR/TRPM8 complex; [5]): 3,1
AR, Average (n=3) (AR/TRPM8 complex; second group of list): 0,1
TRPM8, Average (n=3) (AR/TRPM8 complex; second group of list): 0,1
AR, Average (n=3) (AR/TRPM8 complex; third group of list): 1
TRPM8, Average (n=3) (AR/TRPM8 complex; third group of list): 0
AR in IP anti-AR, Average (n=3) (AR/TRPM8 complex; 10 nM R1881 alone, 10 min): 1
TRPM8 in IP anti-AR, Average (n=3) (AR/TRPM8 complex; 10 nM R1881 alone, 10 min): 2,9
